Data reported in ChEMBL document CHEMBL2384934, “Discovery of 3-phenyl-1H-5-pyrazolylamine derivatives containing a urea pharmacophore as potent and efficacious inhibitors of FMS-like tyrosine kinase-3 (FLT3)” (Bioorg Med Chem, 2013).

Legend:
[1] = target: Vascular endothelial growth factor receptor 1 (Homo sapiens) (UniProt P17948); assay: Inhibition of FLT1 (unknown origin) at 1 uM
[2] = target: Non-receptor tyrosine-protein kinase TYK2 (Homo sapiens) (UniProt P29597); assay: Inhibition of TYK2 (unknown origin) at 1 uM
[3] = target: CDK2/Cyclin A2 (Homo sapiens) (UniProt P24941+P20248); assay: Inhibition of CDK2/cyclin A (unknown origin) at 1 uM; format: protein-complex assay
[4] = target: Hepatocyte growth factor receptor (Homo sapiens) (UniProt P08581); assay: Inhibition of MET (unknown origin) at 1 uM
[5] = target: T1, Receptor-type tyrosine-protein kinase FLT3 (Homo sapiens, UniProt P36888, ITD); assay: Inhibition of FLT3/ITD mutant-mediated stat5 phosphorylation in human MV4-11 cells after 1 hr by Western blot analysis; format: cell-based
[6] = target: Receptor-type tyrosine-protein kinase FLT3 (Homo sapiens) (UniProt P36888); assay: Inhibition of FLT3 (unknown origin) at 1 uM
[7] = target: Serine/threonine-protein kinase Chk1 (Homo sapiens) (UniProt O14757); assay: Inhibition of CHK1 (unknown origin) at 1 uM by kinase Glo assay
[8] = target: Tyrosine-protein kinase JAK3 (Homo sapiens) (UniProt P52333); assay: Inhibition of JAK3 (unknown origin) at 1 uM
Sequence of Tyrosine-protein kinase JAK3 (Homo sapiens) (P52333 whole entry): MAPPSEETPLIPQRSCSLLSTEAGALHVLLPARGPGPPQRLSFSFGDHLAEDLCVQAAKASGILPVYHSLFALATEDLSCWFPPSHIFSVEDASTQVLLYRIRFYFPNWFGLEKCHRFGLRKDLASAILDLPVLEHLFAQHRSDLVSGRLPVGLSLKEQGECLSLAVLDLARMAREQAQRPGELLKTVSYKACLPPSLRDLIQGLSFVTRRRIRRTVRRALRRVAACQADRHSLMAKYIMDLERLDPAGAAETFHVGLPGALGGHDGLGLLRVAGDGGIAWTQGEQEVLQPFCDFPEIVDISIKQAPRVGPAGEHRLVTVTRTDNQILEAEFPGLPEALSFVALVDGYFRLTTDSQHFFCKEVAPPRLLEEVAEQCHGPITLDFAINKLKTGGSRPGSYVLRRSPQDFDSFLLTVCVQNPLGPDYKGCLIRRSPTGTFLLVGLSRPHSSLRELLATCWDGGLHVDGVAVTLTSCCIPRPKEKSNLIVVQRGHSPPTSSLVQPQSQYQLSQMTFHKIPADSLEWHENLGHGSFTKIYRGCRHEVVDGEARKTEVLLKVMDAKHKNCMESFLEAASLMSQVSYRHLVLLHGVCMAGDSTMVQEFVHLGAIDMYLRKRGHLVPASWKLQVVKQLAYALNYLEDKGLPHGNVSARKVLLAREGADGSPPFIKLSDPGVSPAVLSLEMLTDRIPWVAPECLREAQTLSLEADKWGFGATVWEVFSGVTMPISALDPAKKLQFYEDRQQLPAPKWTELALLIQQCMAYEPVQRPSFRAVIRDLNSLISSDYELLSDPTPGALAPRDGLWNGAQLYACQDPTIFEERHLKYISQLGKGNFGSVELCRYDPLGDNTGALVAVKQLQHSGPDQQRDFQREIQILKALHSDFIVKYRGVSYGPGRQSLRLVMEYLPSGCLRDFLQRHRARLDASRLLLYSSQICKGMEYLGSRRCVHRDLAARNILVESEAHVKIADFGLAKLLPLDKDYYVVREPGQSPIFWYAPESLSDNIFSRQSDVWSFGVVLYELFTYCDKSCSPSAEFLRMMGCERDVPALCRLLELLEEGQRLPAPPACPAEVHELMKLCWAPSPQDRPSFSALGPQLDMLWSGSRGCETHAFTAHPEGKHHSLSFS

[9] = target: Vascular endothelial growth factor receptor 3 (Homo sapiens) (UniProt P35916); assay: Inhibition of FLT4 (unknown origin) at 1 uM by kinase Glo assay
Sequence of Vascular endothelial growth factor receptor 3 (Homo sapiens) (P35916 whole entry): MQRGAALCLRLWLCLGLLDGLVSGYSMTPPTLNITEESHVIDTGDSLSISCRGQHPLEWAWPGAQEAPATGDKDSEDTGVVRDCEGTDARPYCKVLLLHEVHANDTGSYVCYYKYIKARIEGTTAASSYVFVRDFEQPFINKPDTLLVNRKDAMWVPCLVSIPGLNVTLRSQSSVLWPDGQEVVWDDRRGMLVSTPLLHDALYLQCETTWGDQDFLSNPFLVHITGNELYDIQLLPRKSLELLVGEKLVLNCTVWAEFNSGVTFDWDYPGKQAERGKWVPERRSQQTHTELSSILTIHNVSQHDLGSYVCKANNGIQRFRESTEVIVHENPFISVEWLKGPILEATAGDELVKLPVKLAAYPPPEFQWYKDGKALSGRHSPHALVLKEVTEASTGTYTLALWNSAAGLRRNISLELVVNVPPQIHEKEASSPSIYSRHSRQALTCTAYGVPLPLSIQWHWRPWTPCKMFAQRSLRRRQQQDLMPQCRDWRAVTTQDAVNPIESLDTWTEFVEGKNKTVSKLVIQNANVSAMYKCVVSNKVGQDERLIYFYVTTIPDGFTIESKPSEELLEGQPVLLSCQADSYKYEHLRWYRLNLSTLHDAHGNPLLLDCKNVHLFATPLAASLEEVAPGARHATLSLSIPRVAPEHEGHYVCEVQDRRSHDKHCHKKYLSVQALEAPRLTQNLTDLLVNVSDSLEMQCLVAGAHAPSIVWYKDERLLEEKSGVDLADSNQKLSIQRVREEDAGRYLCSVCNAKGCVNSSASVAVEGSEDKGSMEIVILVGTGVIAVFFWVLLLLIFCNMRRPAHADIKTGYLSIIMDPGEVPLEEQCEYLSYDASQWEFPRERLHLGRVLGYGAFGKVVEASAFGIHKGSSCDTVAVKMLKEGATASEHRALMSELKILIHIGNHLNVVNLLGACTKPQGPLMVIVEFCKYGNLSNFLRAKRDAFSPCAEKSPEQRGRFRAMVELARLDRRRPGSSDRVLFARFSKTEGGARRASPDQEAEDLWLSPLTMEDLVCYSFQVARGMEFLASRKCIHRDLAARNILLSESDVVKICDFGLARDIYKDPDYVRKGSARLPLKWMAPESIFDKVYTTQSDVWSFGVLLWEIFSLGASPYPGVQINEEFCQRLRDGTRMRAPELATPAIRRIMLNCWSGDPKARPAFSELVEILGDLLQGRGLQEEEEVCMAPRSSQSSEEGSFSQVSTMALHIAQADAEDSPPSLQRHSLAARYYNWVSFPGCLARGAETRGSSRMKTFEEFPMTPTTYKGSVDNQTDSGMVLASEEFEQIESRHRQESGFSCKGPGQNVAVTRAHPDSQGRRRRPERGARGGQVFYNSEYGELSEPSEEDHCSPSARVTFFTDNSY

MOLM-13 [10] = assay: Antitumor activity against human MOLM13 cells xenografted in nu/nu mouse at 1mg/kg, iv qd administered on days 1 to 5 and days 8 to 12 measured on day 11; format: functional; details: MOLM-13, iv, 264 h, read-out: TGI
[11] = target: T1, Receptor-type tyrosine-protein kinase FLT3; assay: Inhibition of FLT3/ITD mutant phosphorylation in human MV4-11 cells after 1 hr by Western blot analysis; format: cell-based
[12] = target: Fibroblast growth factor receptor 1 (Homo sapiens) (UniProt P11362); assay: Inhibition of FGFR1 (unknown origin) at 1 uM
Sequence of Fibroblast growth factor receptor 1 (Homo sapiens) (P11362 22-822 limits assumed): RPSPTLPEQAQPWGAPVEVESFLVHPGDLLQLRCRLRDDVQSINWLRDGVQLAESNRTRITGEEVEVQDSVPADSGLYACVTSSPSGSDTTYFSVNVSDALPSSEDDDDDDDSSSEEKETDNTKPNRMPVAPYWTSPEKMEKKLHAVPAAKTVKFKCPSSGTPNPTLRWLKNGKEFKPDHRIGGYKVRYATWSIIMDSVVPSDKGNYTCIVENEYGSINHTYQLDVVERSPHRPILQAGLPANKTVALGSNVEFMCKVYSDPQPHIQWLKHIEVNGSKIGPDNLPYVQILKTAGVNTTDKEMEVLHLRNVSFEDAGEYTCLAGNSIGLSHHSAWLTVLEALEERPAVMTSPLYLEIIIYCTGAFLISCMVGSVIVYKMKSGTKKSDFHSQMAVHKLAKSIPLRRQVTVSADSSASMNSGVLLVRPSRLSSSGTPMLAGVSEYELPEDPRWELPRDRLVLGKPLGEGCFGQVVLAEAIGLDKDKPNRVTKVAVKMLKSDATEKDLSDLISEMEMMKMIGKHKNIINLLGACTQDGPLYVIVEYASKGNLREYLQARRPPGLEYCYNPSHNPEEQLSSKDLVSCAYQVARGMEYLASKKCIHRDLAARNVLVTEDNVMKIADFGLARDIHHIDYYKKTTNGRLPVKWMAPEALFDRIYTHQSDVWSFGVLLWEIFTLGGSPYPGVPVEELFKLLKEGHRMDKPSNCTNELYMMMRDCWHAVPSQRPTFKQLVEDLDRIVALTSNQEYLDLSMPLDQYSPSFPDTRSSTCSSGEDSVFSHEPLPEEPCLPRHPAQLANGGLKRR

K562 = assay: cells; details: Homo sapiens, K562, 72 h
Description: Cytotoxicity against human FLT3-negative K562 cells harboring wild type BCR/ABL after 72 hrs by MTS assay

[13] = target: High affinity nerve growth factor receptor (Homo sapiens) (UniProt P04629); assay: Inhibition of NTRK1 (unknown origin) at 1 uM
Sequence of High affinity nerve growth factor receptor (Homo sapiens) (P04629 33-796 limits assumed): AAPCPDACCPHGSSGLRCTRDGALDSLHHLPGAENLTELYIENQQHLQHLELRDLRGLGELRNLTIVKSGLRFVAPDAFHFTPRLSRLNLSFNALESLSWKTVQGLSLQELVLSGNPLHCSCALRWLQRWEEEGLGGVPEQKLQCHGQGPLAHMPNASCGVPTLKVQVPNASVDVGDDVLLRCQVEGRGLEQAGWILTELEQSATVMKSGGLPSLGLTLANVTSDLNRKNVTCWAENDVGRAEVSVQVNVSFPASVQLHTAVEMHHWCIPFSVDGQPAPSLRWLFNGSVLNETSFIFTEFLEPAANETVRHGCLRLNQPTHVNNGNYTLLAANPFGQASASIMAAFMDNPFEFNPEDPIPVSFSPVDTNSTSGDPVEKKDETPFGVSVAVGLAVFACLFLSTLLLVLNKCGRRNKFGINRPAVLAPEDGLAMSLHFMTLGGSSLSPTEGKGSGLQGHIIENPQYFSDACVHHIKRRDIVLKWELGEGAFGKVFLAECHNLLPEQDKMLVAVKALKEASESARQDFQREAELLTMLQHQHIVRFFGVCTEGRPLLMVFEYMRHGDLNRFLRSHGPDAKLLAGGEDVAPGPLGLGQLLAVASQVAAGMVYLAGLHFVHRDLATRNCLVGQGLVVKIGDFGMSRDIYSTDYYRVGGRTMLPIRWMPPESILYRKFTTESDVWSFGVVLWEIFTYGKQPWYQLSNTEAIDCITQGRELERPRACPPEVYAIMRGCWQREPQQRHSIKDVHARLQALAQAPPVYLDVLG

[14] = target: Mast/stem cell growth factor receptor Kit (Homo sapiens) (UniProt P10721); assay: Inhibition of KIT (unknown origin) at 1 uM
Sequence of Mast/stem cell growth factor receptor Kit (Homo sapiens) (P10721 whole entry): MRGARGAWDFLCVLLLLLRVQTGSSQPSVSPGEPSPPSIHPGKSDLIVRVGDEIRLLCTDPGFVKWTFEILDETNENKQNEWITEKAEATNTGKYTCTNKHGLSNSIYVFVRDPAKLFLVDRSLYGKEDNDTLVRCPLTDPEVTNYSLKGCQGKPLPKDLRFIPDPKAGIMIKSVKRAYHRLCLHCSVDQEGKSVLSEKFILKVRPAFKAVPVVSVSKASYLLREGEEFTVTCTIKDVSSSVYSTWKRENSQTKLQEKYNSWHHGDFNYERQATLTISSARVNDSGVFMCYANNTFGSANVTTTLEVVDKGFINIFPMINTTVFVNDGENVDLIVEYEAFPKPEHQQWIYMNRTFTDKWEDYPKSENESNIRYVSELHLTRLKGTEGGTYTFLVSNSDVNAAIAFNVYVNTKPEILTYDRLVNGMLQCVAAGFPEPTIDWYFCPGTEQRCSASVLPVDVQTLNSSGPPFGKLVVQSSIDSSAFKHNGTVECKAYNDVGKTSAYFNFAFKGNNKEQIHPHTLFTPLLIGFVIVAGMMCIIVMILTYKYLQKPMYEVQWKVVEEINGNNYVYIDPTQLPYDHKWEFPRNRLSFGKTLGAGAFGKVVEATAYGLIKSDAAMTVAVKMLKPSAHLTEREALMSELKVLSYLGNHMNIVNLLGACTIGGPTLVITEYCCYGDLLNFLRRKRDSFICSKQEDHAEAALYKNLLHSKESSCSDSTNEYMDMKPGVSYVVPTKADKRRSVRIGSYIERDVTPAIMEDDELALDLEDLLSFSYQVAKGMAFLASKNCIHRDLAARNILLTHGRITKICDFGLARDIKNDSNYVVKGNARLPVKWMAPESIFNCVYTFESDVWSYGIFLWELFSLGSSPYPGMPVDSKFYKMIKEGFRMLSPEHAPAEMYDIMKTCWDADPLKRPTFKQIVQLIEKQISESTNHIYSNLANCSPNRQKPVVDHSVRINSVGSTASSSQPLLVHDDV

[15] = target: AMP-activated protein kinase (AMPK) alpha-1/beta-1/gamma-1 (Homo sapiens) (UniProt P54619+Q9Y478+Q13131); assay: Inhibition of AMPK A1/B1/G1 (unknown origin) at 1 uM by kinase Glo assay; format: protein-complex assay
U-937 = assay: cells; details: Homo sapiens, U-937, 72 h
Description: Cytotoxicity against human FLT3 negative U937 cells after 72 hrs by MTS assay

[16] = Half life in Sprague-Dawley rat at 2 mg/kg, iv; format: ADME, organism-based; parameters: dose 2 mg/kg, route intravenous; details: in vivo
[17] = target: Serine/threonine-protein kinase Chk2 (Homo sapiens) (UniProt O96017); assay: Inhibition of CHK2 (unknown origin) at 1 uM by kinase Glo assay
[18] = target: T2, Receptor-type tyrosine-protein kinase FLT3 (Homo sapiens, UniProt P36888); assay: biochemical; format: cell-based, Sf9
T2 sequence (P36888 whole entry): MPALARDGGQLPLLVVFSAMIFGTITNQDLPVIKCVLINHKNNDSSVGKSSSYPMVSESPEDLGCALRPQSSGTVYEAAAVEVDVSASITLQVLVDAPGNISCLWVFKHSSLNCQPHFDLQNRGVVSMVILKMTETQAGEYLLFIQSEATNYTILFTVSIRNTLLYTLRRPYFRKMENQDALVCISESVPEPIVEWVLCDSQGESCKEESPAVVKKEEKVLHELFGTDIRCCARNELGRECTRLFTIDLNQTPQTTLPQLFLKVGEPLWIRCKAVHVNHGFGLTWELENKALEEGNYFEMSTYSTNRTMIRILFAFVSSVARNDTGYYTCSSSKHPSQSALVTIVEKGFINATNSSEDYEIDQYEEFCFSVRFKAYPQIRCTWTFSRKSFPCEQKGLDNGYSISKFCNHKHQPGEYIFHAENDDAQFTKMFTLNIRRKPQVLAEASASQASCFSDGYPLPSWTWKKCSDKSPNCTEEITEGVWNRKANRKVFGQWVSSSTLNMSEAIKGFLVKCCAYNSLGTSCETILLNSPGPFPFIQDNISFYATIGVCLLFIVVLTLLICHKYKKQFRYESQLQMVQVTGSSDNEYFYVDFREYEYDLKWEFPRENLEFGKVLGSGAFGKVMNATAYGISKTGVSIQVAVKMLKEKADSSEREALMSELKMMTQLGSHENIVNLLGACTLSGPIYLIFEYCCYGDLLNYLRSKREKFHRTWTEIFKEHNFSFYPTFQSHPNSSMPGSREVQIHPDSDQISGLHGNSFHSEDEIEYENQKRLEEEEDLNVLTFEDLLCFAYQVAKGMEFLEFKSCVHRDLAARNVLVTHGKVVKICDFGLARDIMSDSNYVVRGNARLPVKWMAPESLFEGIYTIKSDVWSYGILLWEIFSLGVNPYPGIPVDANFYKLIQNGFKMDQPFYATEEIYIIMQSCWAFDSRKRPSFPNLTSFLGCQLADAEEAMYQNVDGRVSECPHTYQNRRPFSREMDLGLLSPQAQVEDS
Description: Inhibition of wild type GST tagged FLT3 kinase (567 to 993) (unknown origin) transfected in insect sf9 cells after 4 hrs by wallac counting analysis

[19] = target: Proto-oncogene tyrosine-protein kinase receptor Ret (Homo sapiens) (UniProt P07949); assay: Inhibition of RET (unknown origin) at 1 uM
[20] = target: Glycogen synthase kinase-3 beta (Homo sapiens) (UniProt P49841); assay: Inhibition of GSK3B (unknown origin) at 1 uM
[21] = target: Serine/threonine-protein kinase MRCK alpha (Homo sapiens) (UniProt Q5VT25); assay: Inhibition of MRCKA (unknown origin) at 1 uM
[22] = AUC (0 to infinity) in Sprague-Dawley rat at 2 mg/kg, iv; format: ADME, organism-based; parameters: time infinity, dose 2 mg/kg, route intravenous; details: plasma
[23] = target: Tyrosine-protein kinase ABL1 (Homo sapiens) (UniProt P00519); assay: Inhibition of ABL1 (unknown origin) at 1 uM
cells = details: Homo sapiens, RS4-11, 72 h
Description: Cytotoxicity against human RS4:11 cells harboring wild type FLT3 after 72 hrs by MTS assay

[24] = target: Mitogen-activated protein kinase 8 (Homo sapiens) (UniProt P45983); assay: Inhibition of MAPK8 (unknown origin) at 1 uM
[25] = target: Vascular endothelial growth factor receptor 2 (Homo sapiens, UniProt P35968); assay: biochemical; format: cell-based, Sf9
Description: Inhibition of recombinant GST tagged VEGFR2 (789 to 1356) (unknown origin) transfected in insect sf9 cells after 120 mins by wallac counting analysis

MOLM-13 [26] = assay: Antitumor activity against human MOLM13 cells xenografted in nu/nu mouse at 3 mg/kg, iv qd administered on days 1 to 5 and days 8 to 12 measured on day 11; format: functional; details: MOLM-13, 264 h, read-out: TGI

In the case of `CC(C)(C)c1cc(NC(=O)NCc2ccc(-c3cc(NC(=O)c4ccc(OCCN5CCOCC5)cc4)[nH]n3)cc2)no1`, the inhibition [1] is reported as 99%, the inhibition [2] is reported as 86% and the inhibition [3] is reported as 5%. For the same molecule, the inhibition [4] was 2%, the IC50 [5] was 1 nM and the inhibition [6] was 100%. It also gave an inhibition [7] of 2%, an inhibition [8] of 27% and an inhibition [9] of 86%. The inhibition in vivo at 1 mg/kg (MOLM-13 [10]) was 66%, the IC50 [11] was 1 nM and the inhibition [12] was 48%. For the same molecule, the GI50 (K562) was 11800 nM, the inhibition [13] was 98% and the inhibition [14] was 68%. For the same molecule, the inhibition [15] was 48%, the GI50 (U-937) was over 20000 nM and the half-life [16] was 6.2 h. It also gave an inhibition [17] of 10%, an IC50 [18] of 18 nM and an inhibition [19] of 97%. The inhibition [20] was 2%, the inhibition [21] was -2% and the AUC(0-inf) [22] was 3140 ng·h/mL. For the same molecule, the inhibition [23] was 21%, the GI50 (cells) was 900 nM and the inhibition [24] was -3%. It also gave an IC50 [25] of 28 nM and an inhibition in vivo at 3 mg/kg (MOLM-13 [26]) of 7%.
